System: MV-4-11 cells
Test: Gene expression microarray analysis (Affymetrix PrimeView) and GSEA
Type: cell-based, human
Set-up: RFU PODN (11730768_x_at) / Fold change /veh PODN (11730768_x_at) / RFU LINC00158 (11744669_a_at) / Fold change /veh LINC00158 (11744669_a_at) / RFU DUSP10 (11751237_a_at) / Fold change /veh DUSP10 (11751237_a_at) / RFU ID3 (11757404_x_at) / Fold change /veh ID3 (11757404_x_at) / RFU PLEKHG5 (11737974_s_at) / Fold change /veh PLEKHG5 (11737974_s_at) / RFU LRRC4B (11730491_at) / Fold change /veh LRRC4B (11730491_at) / RFU GIMAP4 (11747438_a_at) / Fold change /veh GIMAP4 (11747438_a_at) / RFU KRT8 (11758183_x_at) / Fold change /veh KRT8 (11758183_x_at) / RFU CNN1 (11734310_a_at) / Fold change /veh CNN1 (11734310_a_at) / RFU VPS37D (11726825_at) / Fold change /veh VPS37D (11726825_at) / RFU C10orf10 (11716522_x_at) / Fold change /veh C10orf10 (11716522_x_at) / RFU KIR2DL2 /// KIR2DL4 /// KIR2DL5A /// KIR2DL5B /// KIR2DS1 /// KIR2DS2 /// KIR2DS3 /// KIR2DS4 /// KIR3DL3 /// KIR3DL3 /// KIR3DS1 (11738374_at) / Fold change /veh KIR2DL2 /// KIR2DL4 /// KIR2DL5A /// KIR2DL5B /// KIR2DS1 /// KIR2DS2 /// KIR2DS3 /// KIR2DS4 /// KIR3DL3 /// KIR3DL3 /// KIR3DS1 (11738374_at) / RFU C1QL1 (11718748_at) / Fold change /veh C1QL1 (11718748_at) / RFU TMPRSS4 (11747572_a_at) / Fold change /veh TMPRSS4 (11747572_a_at) / RFU HAMP (11756126_x_at) / Fold change /veh HAMP (11756126_x_at) / RFU RNFT2 (11725882_a_at) / Fold change /veh RNFT2 (11725882_a_at) / RFU NR4A2 (11747474_a_at) / Fold change /veh NR4A2 (11747474_a_at) / RFU ABCC12 (11746883_a_at) / Fold change /veh ABCC12 (11746883_a_at) / RFU TMEM136 (11760407_x_at) / Fold change /veh TMEM136 (11760407_x_at) / RFU CLDN22 /// WWC2 (11732394_at) / Fold change /veh CLDN22 /// WWC2 (11732394_at) / RFU HLA-DPB1 (11760878_x_at) / Fold change /veh HLA-DPB1 (11760878_x_at) / RFU SPINT1 (11716480_a_at) / Fold change /veh SPINT1 (11716480_a_at) / RFU GAP43 (11754022_s_at) / Fold change /veh GAP43 (11754022_s_at) / RFU A4GNT (11735810_at) / Fold change /veh A4GNT (11735810_at) / RFU PRB3 (11715151_x_at) / Fold change /veh PRB3 (11715151_x_at) / RFU TUBB4B (11761932_at) / Fold change /veh TUBB4B (11761932_at) / RFU CAPN14 (11732068_a_at) / Fold change /veh CAPN14 (11732068_a_at) / RFU TMCC2 (11721928_a_at) / Fold change /veh TMCC2 (11721928_a_at) / RFU IRGQ (11745062_a_at) / Fold change /veh IRGQ (11745062_a_at) / RFU FAM174B (11720279_a_at) / Fold change /veh FAM174B (11720279_a_at) / RFU TMPRSS4 (11748680_a_at) / Fold change /veh TMPRSS4 (11748680_a_at) / RFU FAM212B (11763350_a_at) / Fold change /veh FAM212B (11763350_a_at) / RFU PLEKHG5 (11743358_a_at) / Fold change /veh PLEKHG5 (11743358_a_at) / RFU ZSCAN30 (11745921_a_at) / Fold change /veh ZSCAN30 (11745921_a_at) / RFU CMKLR1 (11741424_a_at) / Fold change /veh CMKLR1 (11741424_a_at) / RFU LOC101060620 /// MAPK8IP1 (11723275_at) / Fold change /veh LOC101060620 /// MAPK8IP1 (11723275_at) / RFU SPTSSB (11747773_x_at) / Fold change /veh SPTSSB (11747773_x_at) / RFU PRSS12 (11739890_at) / Fold change /veh PRSS12 (11739890_at) / RFU BIN1 (11741810_x_at) / Fold change /veh BIN1 (11741810_x_at) / RFU WNT11 (11732464_a_at) / Fold change /veh WNT11 (11732464_a_at) / RFU C10orf10 (11716521_a_at) / Fold change /veh C10orf10 (11716521_a_at) / RFU C5orf56 (11738089_at) / Fold change /veh C5orf56 (11738089_at) / RFU CYB561 (11721691_x_at) / Fold change /veh CYB561 (11721691_x_at) / RFU ANKRD19P (11752326_a_at) / Fold change /veh ANKRD19P (11752326_a_at) / RFU OR2T12 /// OR2T33 /// OR2T8 (11738714_s_at) / Fold change /veh OR2T12 /// OR2T33 /// OR2T8 (11738714_s_at) / RFU VCAN (11748164_a_at) / Fold change /veh VCAN (11748164_a_at) / RFU JSRP1 (11732532_at) / Fold change /veh JSRP1 (11732532_at) / RFU KRTAP10-11 (11738290_x_at) / Fold change /veh KRTAP10-11 (11738290_x_at) / RFU MYO3A (11730013_a_at) / Fold change /veh MYO3A (11730013_a_at) / RFU EBF3 (11725865_a_at) / Fold change /veh EBF3 (11725865_a_at) / RFU CAMK2N1 (11719241_x_at) / Fold change /veh CAMK2N1 (11719241_x_at) / RFU C5orf56 (11738088_a_at) / Fold change /veh C5orf56 (11738088_a_at) / RFU OLFML3 (11715873_a_at) / Fold change /veh OLFML3 (11715873_a_at) / RFU LOC100653217 /// NTM (11731650_a_at) / Fold change /veh LOC100653217 /// NTM (11731650_a_at) / RFU MAPK11 (11762145_a_at) / Fold change /veh MAPK11 (11762145_a_at) / RFU FIZ1 (11724087_x_at) / Fold change /veh FIZ1 (11724087_x_at) / RFU OASL (11726364_x_at) / Fold change /veh OASL (11726364_x_at) / RFU SOX15 (11748057_x_at) / Fold change /veh SOX15 (11748057_x_at) / RFU CD79A (11719716_a_at) / Fold change /veh CD79A (11719716_a_at) / RFU HIST1H1D (11736915_at) / Fold change /veh HIST1H1D (11736915_at) / RFU CASKIN2 (11723855_a_at) / Fold change /veh CASKIN2 (11723855_a_at) / RFU LOC730098 (11760151_x_at) / Fold change /veh LOC730098 (11760151_x_at) / RFU OR4N2 (11742367_at) / Fold change /veh OR4N2 (11742367_at) / RFU PRRT2 (11749266_a_at) / Fold change /veh PRRT2 (11749266_a_at) / RFU SNX32 (11753110_a_at) / Fold change /veh SNX32 (11753110_a_at) / RFU CDHR5 (11726645_a_at) / Fold change /veh CDHR5 (11726645_a_at) / RFU RCAN1 (11760418_a_at) / Fold change /veh RCAN1 (11760418_a_at) / RFU FAM167A (11723789_a_at) / Fold change /veh FAM167A (11723789_a_at) / RFU FAM26E (11764081_at) / Fold change /veh FAM26E (11764081_at) / RFU ISYNA1 (11749810_s_at) / Fold change /veh ISYNA1 (11749810_s_at) / RFU ACY1 (11761880_at) / Fold change /veh ACY1 (11761880_at) / RFU 11764098_at / Fold change /veh 11764098_at / RFU SAMD14 (11745864_x_at) / Fold change /veh SAMD14 (11745864_x_at) / RFU NPB (11741838_a_at) / Fold change /veh NPB (11741838_a_at) / RFU TMPRSS6 (11731388_a_at) / Fold change /veh TMPRSS6 (11731388_a_at) / RFU KRTAP10-2 (11738614_at) / Fold change /veh KRTAP10-2 (11738614_at) / RFU ARHGAP8 /// PRR5-ARHGAP8 (11727945_x_at) / Fold change /veh ARHGAP8 /// PRR5-ARHGAP8 (11727945_x_at) / RFU KRTAP5-7 /// NADSYN1 (11734609_at) / Fold change /veh KRTAP5-7 /// NADSYN1 (11734609_at) / RFU RASL12 (11751679_a_at) / Fold change /veh RASL12 (11751679_a_at) / RFU CDKN2B (11736163_a_at) / Fold change /veh CDKN2B (11736163_a_at) / RFU PRF1 (11729649_at) / Fold change /veh PRF1 (11729649_at) / RFU, ZNF638 /// ZNF638-IT1 / Fold change vs veh, ZNF638 /// ZNF638-IT1 / RFU, PANK3 / Fold change vs veh, PANK3 / RFU, SH3YL1 / Fold change vs veh, SH3YL1 / RFU, ZEB2 / Fold change vs veh, ZEB2 / RFU, NRIP1 / Fold change vs veh, NRIP1 / RFU, PTTG1IP / Fold change vs veh, PTTG1IP / RFU, CAPN2 / Fold change vs veh, CAPN2 / RFU, MED14 / Fold change vs veh, MED14 / RFU, SNORA58 / Fold change vs veh, SNORA58 / RFU, C1orf63 / Fold change vs veh, C1orf63 / RFU, LRRFIP1 / Fold change vs veh, LRRFIP1 / RFU, NDUFAF7 / Fold change vs veh, NDUFAF7 / RFU, SLC12A2 / Fold change vs veh, SLC12A2 / RFU, IBTK / Fold change vs veh, IBTK / RFU, ESF1 / Fold change vs veh, ESF1 / Fold change vs veh, TMEM50B / RFU, TAOK1 / Fold change vs veh, TAOK1 / RFU, ACBD3 / Fold change vs veh, ACBD3 / RFU, TMA16 / Fold change vs veh, TMA16 / RFU, RWDD3 / Fold change vs veh, RWDD3 / RFU, BCAT1 / Fold change vs veh, BCAT1 / RFU, EDEM3 / Fold change vs veh, EDEM3 / RFU, TMEM33 / Fold change vs veh, TMEM33 / RFU, WDR75 / Fold change vs veh, WDR75 / RFU, AHCTF1 / Fold change vs veh, AHCTF1 / RFU, TFRC / Fold change vs veh, TFRC / RFU, ZDHHC17 / Fold change vs veh, ZDHHC17 / RFU, NOM1 / Fold change vs veh, NOM1 / RFU, ARL8B / Fold change vs veh, ARL8B / RFU, ZBTB11 / Fold change vs veh, ZBTB11 / RFU, TAMM41 / Fold change vs veh, TAMM41 / RFU, KIAA1704 /// LOC100996395 / Fold change vs veh, KIAA1704 /// LOC100996395 / RFU, ING1 / Fold change vs veh, ING1 / RFU, TRMT61B / Fold change vs veh, TRMT61B / RFU, FUBP3 / Fold change vs veh, FUBP3 / RFU, TP53 / Fold change vs veh, TP53 / RFU, TNKS2 / Fold change vs veh, TNKS2 / RFU, ZFP14 / Fold change vs veh, ZFP14 / RFU, ACTR2 / Fold change vs veh, ACTR2 / RFU, PPP3R1 / Fold change vs veh, PPP3R1 / RFU, PIK3R1 / Fold change vs veh, PIK3R1 / RFU, HNRNPA1 / Fold change vs veh, HNRNPA1 / RFU, RNF170 / Fold change vs veh, RNF170 / RFU, ZNF28 / Fold change vs veh, ZNF28 / RFU, RNGTT / Fold change vs veh, RNGTT / RFU, OGT / Fold change vs veh, OGT / RFU, BRD1 / Fold change vs veh, BRD1 / RFU, MARS / Fold change vs veh, MARS / RFU, ZNF655 / Fold change vs veh, ZNF655 / RFU, FAHD1 / Fold change vs veh, FAHD1 / RFU, BDP1 / Fold change vs veh, BDP1 / RFU, LRRCC1 / Fold change vs veh, LRRCC1 / RFU, ARID1A / Fold change vs veh, ARID1A / RFU, ZNF146 / Fold change vs veh, ZNF146 / RFU, ZNF330 / Fold change vs veh, ZNF330 / RFU, GPN3 / Fold change vs veh, GPN3 / RFU, C9orf123 / Fold change vs veh, C9orf123 / RFU, N4BP2L2 / Fold change vs veh, N4BP2L2 / RFU, ARFIP1 / Fold change vs veh, ARFIP1 / RFU, FAM179B / Fold change vs veh, FAM179B / RFU, BCL10 / Fold change vs veh, BCL10 / RFU, UHRF1BP1L / Fold change vs veh, UHRF1BP1L / RFU, BET1 / Fold change vs veh, BET1 / RFU, CNOT2 / Fold change vs veh, CNOT2 / RFU, ZNF268 / Fold change vs veh, ZNF268 / Fold change vs veh, ZNF507 / RFU, DGCR2 / Fold change vs veh, DGCR2 / RFU, WDSUB1 / Fold change vs veh, WDSUB1 / Fold change vs veh, HSP90B1 /// MIR3652 / RFU, ADSS / Fold change vs veh, ADSS / RFU, GK / Fold change vs veh, GK / RFU, ZNF148 / Fold change vs veh, ZNF148 / RFU, TAF9 / Fold change vs veh, TAF9 / RFU, SLC1A5 / Fold change vs veh, SLC1A5 / RFU, SLMO2 / Fold change vs veh, SLMO2 / RFU, ABCC4 / Fold change vs veh, ABCC4 / RFU, LOC101060439 /// RAP1B / Fold change vs veh, LOC101060439 /// RAP1B / RFU, RFX7 / Fold change vs veh, RFX7 / RFU, GTPBP10 / Fold change vs veh, GTPBP10 / RFU, CNEP1R1 / Fold change vs veh, CNEP1R1 / RFU, BIVM-ERCC5 /// ERCC5 / Fold change vs veh, BIVM-ERCC5 /// ERCC5 / RFU, ILF3 / Fold change vs veh, ILF3 / RFU 11762660_at / Fold change /veh 11762660_at / RFU VCAN (11757783_s_at) / Fold change /veh VCAN (11757783_s_at) / RFU DDX43 (11728927_at) / Fold change /veh DDX43 (11728927_at) / RFU KRT8 (11758188_x_at) / Fold change /veh KRT8 (11758188_x_at) / RFU NKD1 (11759106_at) / Fold change /veh NKD1 (11759106_at) / RFU SRD5A1 (11742802_a_at) / Fold change /veh SRD5A1 (11742802_a_at) / RFU TPSAB1 /// TPSB2 (11721975_s_at) / Fold change /veh TPSAB1 /// TPSB2 (11721975_s_at) / RFU GSTM3 (11746129_a_at) / Fold change /veh GSTM3 (11746129_a_at) / RFU IL23R (11737362_x_at) / Fold change /veh IL23R (11737362_x_at) / RFU TMEM51 (11727254_a_at) / Fold change /veh TMEM51 (11727254_a_at) / RFU PIWIL2 (11732686_x_at) / Fold change /veh PIWIL2 (11732686_x_at) / RFU ORM1 (11744905_x_at) / Fold change /veh ORM1 (11744905_x_at) / RFU CCDC152 (11743942_at) / Fold change /veh CCDC152 (11743942_at) / RFU ECM1 (11717891_a_at) / Fold change /veh ECM1 (11717891_a_at) / RFU IL23R (11748794_a_at) / Fold change /veh IL23R (11748794_a_at) / RFU TNFAIP8L3 (11732012_x_at) / Fold change /veh TNFAIP8L3 (11732012_x_at) / RFU MBOAT4 (11741988_at) / Fold change /veh MBOAT4 (11741988_at) / RFU 11764193_at / Fold change /veh 11764193_at / RFU TMEM53 (11763286_at) / Fold change /veh TMEM53 (11763286_at) / RFU MAGEB2 (11727129_at) / Fold change /veh MAGEB2 (11727129_at) / RFU TMEM200A (11744735_a_at) / Fold change /veh TMEM200A (11744735_a_at) / RFU CCDC152 (11751479_a_at) / Fold change /veh CCDC152 (11751479_a_at) / RFU FAM211A (11726209_a_at) / Fold change /veh FAM211A (11726209_a_at) / RFU RGS16 (11746705_a_at) / Fold change /veh RGS16 (11746705_a_at) / RFU VCAN (11755009_s_at) / Fold change /veh VCAN (11755009_s_at) / RFU RHOB (11743442_s_at) / Fold change /veh RHOB (11743442_s_at) / RFU RGS16 (11720943_a_at) / Fold change /veh RGS16 (11720943_a_at) / RFU RGS16 (11720944_at) / Fold change /veh RGS16 (11720944_at) / RFU, VPS4B / Fold change vs veh, VPS4B / RFU, CREB1 / Fold change vs veh, CREB1 / RFU, DNAJC13 / Fold change vs veh, DNAJC13 / RFU, GNAQ / Fold change vs veh, GNAQ / RFU, CDK5R1 / Fold change vs veh, CDK5R1 / RFU, ZRANB3 / Fold change vs veh, ZRANB3 / RFU, CUL4A / Fold change vs veh, CUL4A / RFU, CCNY / Fold change vs veh, CCNY / RFU, UFL1 / Fold change vs veh, UFL1 / RFU, COG3 / Fold change vs veh, COG3 / RFU, DIAPH2 / Fold change vs veh, DIAPH2 / RFU, SKA2 / Fold change vs veh, SKA2 / RFU, AFF3 / Fold change vs veh, AFF3 / RFU, LMF1 / Fold change vs veh, LMF1 / RFU, IPO11 / Fold change vs veh, IPO11 / RFU, DFFB / Fold change vs veh, DFFB / RFU, FOXP1 / Fold change vs veh, FOXP1 / RFU, CARD8 / Fold change vs veh, CARD8 / RFU, STRN3 / Fold change vs veh, STRN3 / RFU, ADK / Fold change vs veh, ADK / RFU, RASSF2 / Fold change vs veh, RASSF2 / RFU, WIPF1 / Fold change vs veh, WIPF1 / RFU, LARP1B / Fold change vs veh, LARP1B / RFU, RASA1 / Fold change vs veh, RASA1 / RFU, RB1 / Fold change vs veh, RB1 / RFU, PPFIA1 / Fold change vs veh, PPFIA1 / RFU, MAT2A / Fold change vs veh, MAT2A / RFU, CCT5 / Fold change vs veh, CCT5 / RFU, WDR92 / Fold change vs veh, WDR92 / RFU, CUX1 / Fold change vs veh, CUX1 / RFU, TTC7A / Fold change vs veh, TTC7A / RFU, TMEM135 / Fold change vs veh, TMEM135 / RFU, DEPTOR / Fold change vs veh, DEPTOR / RFU, CPM / Fold change vs veh, CPM / RFU, DNAJB6 / Fold change vs veh, DNAJB6 / RFU, CACNA2D3 / Fold change vs veh, CACNA2D3 / RFU, DTX4 / Fold change vs veh, DTX4 / RFU, TFCP2 / Fold change vs veh, TFCP2 / RFU, GMCL1 /// GMCL1P1 / Fold change vs veh, GMCL1 /// GMCL1P1 / RFU, AEBP2 / Fold change vs veh, AEBP2 / RFU, SNHG1 /// SNORD22 /// SNORD25 /// SNORD26 /// SNORD27 /// SNORD28 /// SNORD29 /// SNORD31 / Fold change vs veh, SNHG1 /// SNORD22 /// SNORD25 /// SNORD26 /// SNORD27 /// SNORD28 /// SNORD29 /// SNORD31 / Fold change (Aza/veh), C12orf56 (ProbeSet 11735607_a_at) / Fold change (ACY-1035/veh), C12orf56 (ProbeSet 11735607_a_at) / Fold change (Aza/veh), FGFR1OP (ProbeSet 11751329_s_at) / Fold change (ACY-1035/veh), FGFR1OP (ProbeSet 11751329_s_at) / Fold change (Aza/veh), VPS36 (ProbeSet 11739960_a_at) / Fold change (ACY-1035/veh), VPS36 (ProbeSet 11739960_a_at) / RFU SYPL1 (11715823_x_at) / Fold change /veh SYPL1 (11715823_x_at) / RFU IGFBP7 (11715501_s_at) / Fold change /veh IGFBP7 (11715501_s_at) / RFU REEP3 (11722064_at) / Fold change /veh REEP3 (11722064_at) / RFU IGLL1 (11728026_x_at) / Fold change /veh IGLL1 (11728026_x_at): dose or concentration left out as unconfirmed
Settings: ProbeSet 11725141_a_at; LIST B

## Nc1ccc(-c2cccs2)cc1NC(=O)c1ccc2c(c1)cc(C1CC1)n2CCN1CCOCC1 [ACY-1035]
  RFU, FUBP3: 490.19 RFU

From paper PMC5218480 (PLoS ONE, 2017)
